Assay results reported in ChEMBL document CHEMBL4325853, “Design, synthesis and antibacterial evaluation of 2,4-disubstituted-6-thiophenyl-pyrimidines” (Eur J Med Chem, 2019).
Converted amounts (≈) assume the structure as drawn. The source made the active and inactive calls. No cut-off for these calls is given here.

Tests used:
[1] = Selectivity index, ratio of HC50 for human erythrocytes to MIC for methicillin-resistant Staphylococcus aureus ATCC 43300; type: toxicity; conditions: read-out: Selectivity Index
Staphylococcus aureus [2] = test: Antibacterial activity against methicillin-resistant Staphylococcus aureus ATCC 33591 after 18 hrs by broth microdilution method; type: functional; conditions: ATCC 33591, 18 h
Staphylococcus aureus [3] = test: Antibacterial activity against methicillin-resistant Staphylococcus aureus isolate 8078 after 18 hrs by broth microdilution method; type: functional; conditions: isolate 8078, 18 h
Staphylococcus aureus [4] = test: Antibacterial activity against methicillin-resistant Staphylococcus aureus isolate 7813 after 18 hrs by broth microdilution method; type: functional; conditions: isolate 7813, 18 h
Staphylococcus aureus [5] = test: Antibacterial activity against methicillin-resistant Staphylococcus aureus isolate 7434 after 18 hrs by broth microdilution method; type: functional; conditions: isolate 7434, 18 h
Staphylococcus aureus [6] = test: Antibacterial activity against methicillin-resistant Staphylococcus aureus isolate 7863 after 18 hrs by broth microdilution method; type: functional; conditions: isolate 7863, 18 h
Staphylococcus aureus [7] = test: Antibacterial activity against methicillin-resistant Staphylococcus aureus isolate 2350 after 18 hrs by broth microdilution method; type: functional; conditions: isolate 2350, 18 h
Staphylococcus aureus [8] = test: Antibacterial activity against methicillin-resistant Staphylococcus aureus isolate 7536 after 18 hrs by broth microdilution method; type: functional; conditions: isolate 7536, 18 h
Staphylococcus aureus [9] = test: Antibacterial activity against Staphylococcus aureus ATCC 29213 after 18 hrs by broth microdilution method; type: functional; conditions: ATCC 29213, 18 h
Staphylococcus aureus [10] = test: Antibacterial activity against methicillin-resistant Staphylococcus aureus isolate 5395 after 18 hrs by broth microdilution method; type: functional; conditions: isolate 5395, 18 h
Bacillus subtilis = test: Antibacterial activity against Bacillus subtilis 168 after 18 hrs by broth microdilution method; type: functional; conditions: subsp. subtilis str. 168, 18 h
Staphylococcus aureus [11] = test: Antibacterial activity against methicillin-resistant Staphylococcus aureus isolate 8179 after 18 hrs by broth microdilution method; type: functional; conditions: isolate 8179, 18 h
Staphylococcus aureus [12] = test: Antibacterial activity against methicillin-resistant Staphylococcus aureus isolate 5426 after 18 hrs by broth microdilution method; type: functional; conditions: isolate 5426, 18 h
Enterococcus faecalis [13] = test: Potency index, ratio of berberine MIC to test compound MIC for Enterococcus faecalis ATCC 29212; type: functional
Staphylococcus aureus [14] = test: Antibacterial activity against methicillin-resistant Staphylococcus aureus isolate 7717 after 18 hrs by broth microdilution method; type: functional; conditions: isolate 7717, 18 h
Staphylococcus aureus [15] = test: Antibacterial activity against methicillin-resistant Staphylococcus aureus isolate 1428 after 18 hrs by broth microdilution method; type: functional; conditions: isolate 1428, 18 h
Staphylococcus aureus [16] = test: Antibacterial activity against Staphylococcus aureus ATCC 29213 after 10 passages by broth microdilution method; type: functional, organism-based
[17] = Selectivity index, ratio of HC50 for human erythrocytes to MIC for methicillin-resistant Staphylococcus aureus ATCC 33591; type: toxicity; conditions: read-out: Selectivity Index
Staphylococcus aureus [18] = test: Ratio of MIC for Staphylococcus aureus ATCC 29213 after and before 11 to 21 serial passages; type: functional
Staphylococcus aureus [19] = test: Ratio of MBC to MIC for methicillin-resistant Staphylococcus aureus ATCC BAA41; type: functional
Staphylococcus aureus [20] = test: Antibacterial activity against methicillin-resistant Staphylococcus aureus isolate 7960 after 18 hrs by broth microdilution method; type: functional; conditions: isolate 7960, 18 h
Escherichia coli = test: Antibacterial activity against Escherichia coli ATCC 25922 after 18 hrs by broth microdilution method; type: functional; conditions: ATCC 25922, 18 h
Enterococcus faecalis [21] = test: Antibacterial activity against vancomycin-resistant Enterococcus faecalis ATCC 700221 after 18 hrs by broth microdilution method; type: functional; conditions: ATCC 700221, 18 h
Staphylococcus aureus [22] = test: Ratio of MBC to MIC for methicillin-resistant Staphylococcus aureus ATCC 43300; type: functional
Staphylococcus aureus [23] = test: Antibacterial activity against methicillin-resistant Staphylococcus aureus isolate 3170 after 18 hrs by broth microdilution method; type: functional; conditions: isolate 3170, 18 h
Staphylococcus aureus [24] = test: Potency index, ratio of methicillin MIC to test compound MIC for methicillin-resistant Staphylococcus aureus ATCC 43300; type: functional
Staphylococcus aureus [25] = test: Antibacterial activity against methicillin-resistant Staphylococcus aureus isolate 8162 after 18 hrs by broth microdilution method; type: functional; conditions: isolate 8162, 18 h
Staphylococcus aureus [26] = test: Antibacterial activity against methicillin-resistant Staphylococcus aureus isolate 4023 after 18 hrs by broth microdilution method; type: functional; conditions: isolate 4023, 18 h
[27] = Selectivity index, ratio of HC50 for human erythrocytes to MIC for methicillin-resistant Staphylococcus aureus ATCC 33592; type: toxicity; conditions: read-out: Selectivity Index
Staphylococcus aureus [28] = test: Antibacterial activity against methicillin-resistant Staphylococcus aureus isolate 5239 after 18 hrs by broth microdilution method; type: functional; conditions: isolate 5239, 18 h
[29] = Selectivity index, ratio of HC50 for human erythrocytes to MIC for methicillin-resistant Staphylococcus aureus ATCC BAA1720; type: toxicity; conditions: read-out: Selectivity Index
Staphylococcus aureus [30] = test: Bactericidal activity against methicillin-resistant Staphylococcus aureus ATCC 43300 after 18 hrs by broth microdilution method; type: functional; conditions: ATCC 43300, 18 h
[31] = biological target: T1, Cell division protein FtsZ (Staphylococcus aureus) (UniProt P0A031); test: Inhibition of recombinant Staphylococcus aureus FtsZ polymerization at 8 ug/ml by 90 degree light scattering-based fluorescence spectrometric analysis
T1 sequence (whole entry): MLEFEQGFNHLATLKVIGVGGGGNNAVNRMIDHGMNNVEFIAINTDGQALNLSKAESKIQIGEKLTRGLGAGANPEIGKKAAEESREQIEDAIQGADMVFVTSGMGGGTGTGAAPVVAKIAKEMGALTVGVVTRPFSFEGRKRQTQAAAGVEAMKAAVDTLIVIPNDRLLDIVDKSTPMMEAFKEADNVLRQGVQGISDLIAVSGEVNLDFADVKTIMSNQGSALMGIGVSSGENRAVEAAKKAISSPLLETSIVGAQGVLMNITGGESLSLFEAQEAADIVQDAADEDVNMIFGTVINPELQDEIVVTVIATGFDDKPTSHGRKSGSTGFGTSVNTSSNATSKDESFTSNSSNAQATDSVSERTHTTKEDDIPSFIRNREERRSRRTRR

Staphylococcus aureus [32] = test: Antibacterial activity against methicillin-resistant Staphylococcus aureus ATCC BAA41 after 18 hrs by broth microdilution method; type: functional; conditions: ATCC BAA41, 18 h
Staphylococcus aureus [33] = test: Antibacterial activity against methicillin-resistant Staphylococcus aureus isolate 7183 after 18 hrs by broth microdilution method; type: functional; conditions: isolate 7183, 18 h
[34] = test system: Staphylococcus epidermidis; test: Antibacterial activity against Staphylococcus epidermidis ATCC 12228 after 18 hrs by broth microdilution method; type: functional; conditions: ATCC 12228, 18 h
[35] = biological target: T1, Cell division protein FtsZ (Staphylococcus aureus); test: Inhibition of recombinant Staphylococcus aureus FtsZ GTPase activity assessed as reduction in inorganic phosphate formation after 30 mins by colorimetric method
Staphylococcus aureus [36] = test: Antibacterial activity against methicillin-resistant Staphylococcus aureus isolate 2158 after 18 hrs by broth microdilution method; type: functional; conditions: isolate 2158, 18 h
Enterococcus faecalis [37] = test: Bactericidal activity against vancomycin-resistant Enterococcus faecalis ATCC 700221 after 18 hrs by broth microdilution method; type: functional; conditions: ATCC 700221, 18 h
[38] = Selectivity index, ratio of HC50 for human erythrocytes to MIC for methicillin-resistant Staphylococcus aureus ATCC BAA41; type: toxicity; conditions: read-out: Selectivity Index
[39] = Hemolytic activity against human erythrocytes measured after 1 hr; type: ADME, cell-based, Erythrocyte

CC(C)(C)c1ccc(CN2CCCN(CCc3cc(-c4cccs4)nc(-c4ccncc4)n3)CC2)cc1
selectivity ratio [1]: > 32
MIC90 (Staphylococcus aureus [2]): 2 µg/mL (≈ 3.91 µM)
MIC90 (Staphylococcus aureus [3]): 2 µg/mL (≈ 3.91 µM)
MIC90 (Staphylococcus aureus [4]): 2 µg/mL (≈ 3.91 µM)
MIC90 (Staphylococcus aureus [5]): 2 µg/mL (≈ 3.91 µM)
MIC90 (Staphylococcus aureus [6]): 2 µg/mL (≈ 3.91 µM)
MIC90 (Staphylococcus aureus [7]): 2 µg/mL (≈ 3.91 µM)
MIC90 (Staphylococcus aureus [8]): 2 µg/mL (≈ 3.91 µM)
MIC90 (Staphylococcus aureus [9]): 2 µg/mL (≈ 3.91 µM)
MIC90 (Staphylococcus aureus [10]): 2 µg/mL (≈ 3.91 µM)
MIC90 (Bacillus subtilis): 2 µg/mL (≈ 3.91 µM)
MIC90 (Staphylococcus aureus [11]): 2 µg/mL (≈ 3.91 µM)
MIC90 (Staphylococcus aureus [12]): 2 µg/mL (≈ 3.91 µM)
Ratio (Enterococcus faecalis [13]): 50 - 100
MIC90 (Staphylococcus aureus [14]): 2 µg/mL (≈ 3.91 µM)
MIC90 (Staphylococcus aureus [15]): 2 µg/mL (≈ 3.91 µM)
Activity (Staphylococcus aureus [16]): Active
selectivity ratio [17]: > 32
Activity (Staphylococcus aureus [18]): Active
Ratio (Staphylococcus aureus [19]): 1
MIC90 (Staphylococcus aureus [20]): 2 µg/mL (≈ 3.91 µM)
MIC90 (Escherichia coli): 128 µg/mL (≈ 250 µM)
MIC90 (Enterococcus faecalis [21]): 4 µg/mL (≈ 7.82 µM)
Ratio (Staphylococcus aureus [22]): 2
MIC90 (Staphylococcus aureus [23]): 2 µg/mL (≈ 3.91 µM)
Ratio (Staphylococcus aureus [24]): >100
MIC90 (Staphylococcus aureus [25]): 2 µg/mL (≈ 3.91 µM)
MIC90 (Staphylococcus aureus [26]): 2 µg/mL (≈ 3.91 µM)
selectivity ratio [27]: > 32
MIC90 (Staphylococcus aureus [28]): 2 µg/mL (≈ 3.91 µM)
selectivity ratio [29]: > 32
MBC (Staphylococcus aureus [30]): 4 µg/mL (≈ 7.82 µM)
inhibition [31]: Active
MIC90 (Staphylococcus aureus [32]): 2 µg/mL (≈ 3.91 µM)
MIC90 (Staphylococcus aureus [33]): 2 µg/mL (≈ 3.91 µM)
MIC90 [34]: 2 µg/mL (≈ 3.91 µM)
inhibition [35]: Dose-dependent effect
MIC90 (Staphylococcus aureus [36]): 2 µg/mL (≈ 3.91 µM)
MBC (Enterococcus faecalis [37]): 4 µg/mL (≈ 7.82 µM)
selectivity ratio [38]: > 32
HC50 at 1 h [39]: > 64 µg/mL
